The text below walks through data of patent US9024041B2, “P38 MAP kinase inhibitors” (Respivert Ltd., priority 2010, dated 2015).

In data set [1] the target is T1, p38 MAPKα isoform (MAPK14: Invitrogen) (Homo sapiens, UniProt Q16539).
T1 construct: purchased Invitrogen
The data set can be described thus: p38 MAPKα enzyme inhibition assay (FRET, Z-LYTE, via MAPKAP-K2 activation). Type of data set: biochemical. The settings on record: 2 hr pre-incubation, ATP 10.0 μM; read-out: Enzyme Inhibition IC50 p38α.

In data set [2] the target is T2, Recombinant, phosphorylated p38 MAPKγ (MAPK12:Invitrogen) (Homo sapiens, UniProt P53778).
T2 construct: purchased Invitrogen
T2 sequence (P53778 1-367): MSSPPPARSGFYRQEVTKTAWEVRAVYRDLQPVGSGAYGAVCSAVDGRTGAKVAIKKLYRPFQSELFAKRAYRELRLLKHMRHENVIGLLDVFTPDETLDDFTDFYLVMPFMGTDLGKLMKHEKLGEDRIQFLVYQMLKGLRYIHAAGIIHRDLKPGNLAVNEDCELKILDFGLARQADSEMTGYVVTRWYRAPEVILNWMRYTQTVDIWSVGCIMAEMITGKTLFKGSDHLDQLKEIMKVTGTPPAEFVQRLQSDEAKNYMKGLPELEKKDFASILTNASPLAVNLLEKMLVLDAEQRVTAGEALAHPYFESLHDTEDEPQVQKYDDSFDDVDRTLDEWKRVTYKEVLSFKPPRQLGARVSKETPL
The data set can be described thus: p38 MAPKγ enzyme inhibition assay (FRET, Z-LYTE). Conditions: 2 hr pre-incubation, ATP 100 μM; read-out: Enzyme Inhibition IC50 p38γ. It counts as biochemical.

The subject of data set [3] is LPS-induced TNFα release in THP-1 cells. The data set can be described thus: LPS-induced TNFα release in THP-1 cells. Conditions: Homo sapiens, 3 μg/mL LPS, 4 hr. It counts as cell-based. The method, then: Cellular Potency as Determined by LPS-Induced TNFα Release in THP-1 Cells
THP-1 cells, a human monocytic cell line, were stimulated with 3 μg/mL of LPS (from E. Coli; 0111:B4, Sigma) for 4 hr and the supernatant collected for determination of the TNFα concentration by sandwich ELISA (Duo-set, R&D systems). The inhibition of TNFα production was calculated at each concentration by comparison with vehicle control. The 50% inhibitory concentration (IC50) was determined from the resultant concentration-response curve.

Data set [4] relates to LPS-induced TNFα release in d-U937 cells. The data set can be described thus: LPS-induced TNFα release in d-U937 cells. It counts as cell-based. Conditions: Homo sapiens, dU937, 4 h; read-out: LPS/TNFα REC50 d-U937. The method, then:
(§1) Cellular Potency as Determined by LPS-Induced TNFα/IL-8 Release in d-U937Cells
(§2) U937 cells, a human monocytic cell line, were differentiated to macrophage-type cells by incubation with phorbol myristate acetate (PMA; 100 ng/mL) for 48 to 72 hr. Cells were pre-incubated with final concentrations of test compound for 2 hr and were then stimulated with 0.1 μg/mL of LPS (from E. Coli: O111:B4, Sigma) for 4 hr. The supernatant was collected for determination of TNFα and IL-8 concentrations by sandwich ELISA (Duo-set, R&D systems). […] The relative 50% effective concentration (REC50) was determined from the resultant concentration-response curve. The inhibition of IL-8 production was calculated at each concentration of test compound by comparison with vehicle control. The 50% inhibitory concentration (IC50) was determined from the resultant concentration-response curve.

In data set [5] the test system is LPS-induced IL-8 release in d-U937 cells. The data set can be described thus: LPS-induced IL-8 release in d-U937 cells. Type of data set: cell-based. The settings on record: Homo sapiens, dU937, 0.1 μg/mL LPS, 4 hr. On the procedure: as §1, §2
The test system of data set [6] is Poly I:C-induced ICAM-1 expression in BEAS2B cells. The data set can be described thus: Poly I:C-induced ICAM-1 induction in BEAS2B cells. The settings on record: Homo sapiens, BEAS-2B, poly I:C 1 μg/mL, 18 hr, read-out: PolyI:C/ICAM1 IC50 BEAS2B. It counts as cell-based. On the procedure:
Cellular Potency as Determined by Poly I:C-Induced ICAM-1 Induction in BEAS2B Cells
Poly I:C (1 μg/mL) (Invivogen Ltd., San Diego, Calif.) was transfected into BEAS2B cells (human bronchial epithelial cells, ATCC) with Oligofectamine (Invitrogen, Carlsbad, Calif.). Cells were pre-incubated with final concentrations of test compounds for 2 hr and the level of ICAM1 expression on the cell surface was determined by cell-based ELISA. At a time point 18 hr after poly I:C transfection, cells were fixed with 4% formaldehyde in PBS and then endogenous peroxidase was quenched by the addition of 0.1% sodium azide and 1% hydrogen peroxide. Cells were washed with wash-buffer (0.1% Tween in PBS: PBS-Tween). and after blocking the wells with 5% milk in PBS-Tween for 1 hr, the cells were incubated with anti-human ICAM-1 antibody (Cell Signaling Technology, Danvers, Mass.) in 1% BSA PBS overnight at 4° C. The cells were washed with PBS-Tween and incubated with the secondary antibody (HRP-conjugated anti-rabbit IgG, Dako Ltd., Glostrup, Denmark). The ICAM-1 signal was detected by adding substrate and reading the absorbance at 450 nm against a reference wavelength of 655 nm using a spectrophotometer. The cells were then washed with PBS-Tween and total cell numbers in each well were determined by reading absorbance at 595 nm after Crystal Violet staining and elution by 1% SDS solution. The measured OD 450-655 readings were corrected for cell number by dividing with the OD595 reading in each well. The inhibition of ICAM-1 expression was calculated at each concentration of test compound by comparison with vehicle control. The 50% inhibitory concentration (IC50) was determined from the resultant concentration-response curve.

Data set [7] deals with Differentiated U937 cells. The data set can be described thus: MTT assay: cell viability on exposure to test compounds. It counts as cell-based, human. Conditions: percentage loss of cell viability vs vehicle, 1 μg/mL; for MTT Assay (Viability) 4 h d-U937: 5% FCS; for MTT Assay (Viability) 24 h d-U937: 10% FCS. On the procedure:
MTT Assay: Determination of Cell Viability on Exposure to Test Compounds
Differentiated U937 cells were pre-incubated with each test compound under two protocols: the first for 4 hr in 5% FCS and the second in 10% FCS for 24 h. The supernatant was replaced with 200 μL of new media and 10 μL of MTT stock solution (5 mg/mL) was added to each well. After incubation for 1 hr the media were removed, 200 μL of DMSO was added to each well and the plates were shaken lightly for 1 hr prior to reading the absorbance at 550 nm. The percentage loss of cell viability was calculated for each well relative to vehicle (0.5% DMSO) treatment. Consequently an apparent increase in cell viability for drug treatment relative to vehicle is tabulated as a negative percentage.

T1 sequence (Q16539 whole entry, canonical isoform): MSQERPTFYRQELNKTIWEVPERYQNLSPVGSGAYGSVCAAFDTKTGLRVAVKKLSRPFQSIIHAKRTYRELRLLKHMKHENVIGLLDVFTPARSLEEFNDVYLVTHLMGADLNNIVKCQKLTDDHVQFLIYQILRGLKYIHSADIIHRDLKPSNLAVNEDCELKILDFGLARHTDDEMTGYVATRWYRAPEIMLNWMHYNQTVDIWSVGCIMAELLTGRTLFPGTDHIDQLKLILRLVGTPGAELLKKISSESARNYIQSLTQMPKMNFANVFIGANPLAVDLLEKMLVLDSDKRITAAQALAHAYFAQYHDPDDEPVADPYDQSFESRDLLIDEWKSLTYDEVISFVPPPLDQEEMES

As for `COCC(=O)Nc1cc(Oc2ccc(NC(=O)Nc3cc(C(C)(C)C)nn3-c3ccc(NS(C)(=O)=O)cc3)c3ccccc23)ccn1` [Example 2, N-(4-(4-(3-(3-tert-Butyl-1-(4-(methylsulfonamido)phenyl)-1H-pyrazol-5-yl)ureido)naphthalen-1-yloxy)pyridin-2-yl)-2-methoxyacetamide], the IC50 in data set [1] is 13 nM; in data set [2] it was 42.3 nM; in data set [3] it was 1.3 nM; in data set [5], 7.2 nM; in data set [6] it was 4.1 nM. Also, in data set [4], the EC50 was 0.4 nM. Further, in data set [7], the “MTT Assay (Viability) 4 h d-U937” value is reported as −13.2%. In addition, the “MTT Assay (Viability) 24 h d-U937” value in data set [7] was determined as 15.1%.
For the compound `COCC(=O)Nc1cc(Oc2ccc(NC(=O)Nc3cc(C(C)(C)C)nn3-c3ccc(OC)cc3)c3ccccc23)ccn1` [Example 3, N-(4-((4-(3-(3-(tert-Butyl)-1-(4-methoxyphenyl)-1H-pyrazol-5-yl)ureido)naphthalen-1-yl)oxy)pyridin-2-yl)-2-methoxyacetamide], the IC50 amounted to 15.5 nM in data set [1]; 58.2 nM in data set [2]; 1.5 nM in data set [3]; 3.3 nM in data set [5]; 5.7 nM in data set [6]. The EC50 in data set [4] was determined as 1.9 nM. Also, the “MTT Assay (Viability) 4 h d-U937” value in data set [7] is −28.4%. Also, the “MTT Assay (Viability) 24 h d-U937” value in data set [7] is on record as −51.5%.
Consider `COc1ccc(-n2nc(C(C)(C)C)cc2NC(=O)Nc2ccc(Oc3ccnc(NC(=O)CO)c3)c3ccccc23)cc1` [Example 4, N-(4-(4-(3-(3-tert-Butyl-1-(4-methoxyphenyl)-1H-pyrazol-5-yl)ureido)naphthalen-1-yloxy)pyridin-2-yl)-2-hydroxyacetamide], for which the IC50 was determined as 4.6 nM in data set [1]; 150 nM in data set [2]; 1.3 nM in data set [3]; 3 nM in data set [5]; 4 nM in data set [6]. The EC50 in data set [4] stood at 0.04 nM. For the same compound, the “MTT Assay (Viability) 4 h d-U937” value in data set [7] is −3.9%. In data set [7], the “MTT Assay (Viability) 24 h d-U937” value was −38.2%.
Regarding `COCC(=O)Nc1cc(Oc2ccc(NC(=O)Nc3cc(C(C)(C)C)nn3-c3ccc(O)cc3)c3ccccc23)ccn1` [Example 5, N-(4-((4-(3-(3-(tert-Butyl)-1-(4-hydroxyphenyl)-1H-pyrazol-5-yl)ureido)naphthalen-1-yl)oxy)pyridin-2-yl)-2-methoxyacetamide], the IC50 in data set [1] is 1.7 nM; in data set [2], 88.9 nM; in data set [3] it was 0.4 nM; in data set [5] it was 0.7 nM; in data set [6], 6.7 nM. Further, the EC50 in data set [4] was determined as 0.66 nM. The “MTT Assay (Viability) 4 h d-U937” value in data set [7] worked out at 4.5%. Further, the “MTT Assay (Viability) 24 h d-U937” value in data set [7] is −19.9%.
Consider `COc1ccc(-n2nc(C(C)(C)C)cc2NC(=O)Nc2ccc(Oc3ccnc(NC(=O)NC4CC4)c3)c3ccccc23)cc1` [Example 6, 1-(3-(tert-Butyl)-1-(4-methoxyphenyl)-1H-pyrazol-5-yl)-3-(4-(2-(3-cyclopropylureido)pyridin-4-yloxy)naphthalen-1-yl)urea], for which the IC50 stood at 17.8 nM in data set [1]; 51.3 nM in data set [2]; 1.2 nM in data set [3]; 2.6 nM in data set [5]; 1 nM in data set [6]. In addition, the EC50 in data set [4] amounted to 19.4 nM. In addition, the “MTT Assay (Viability) 4 h d-U937” value in data set [7] is recorded as −10.7%. The “MTT Assay (Viability) 24 h d-U937” value in data set [7] is −50.1%.
For `COc1ccc(-n2nc(C(C)(C)C)cc2NC(=O)Nc2ccc(Oc3ccnc(NC(=O)N(C)C)c3)c3ccccc23)cc1` [Example 7, 3-(4-(4-(3-(3-tert-Butyl-1-(4-methoxyphenyl)-1H-pyrazol-5-yl)ureido)naphthalen-1-yloxy)pyridin-2-yl)-1,1-dimethylurea], the IC50 in data set [1] is 4.1 nM; in data set [2], 138 nM; in data set [3], 0.7 nM; in data set [5] it was 0.1 nM; in data set [6], 1.9 nM. In addition, in data set [4], the EC50 was determined as 0.03 nM. Also, the “MTT Assay (Viability) 4 h d-U937” value in data set [7] is listed as −13.3%. For the same compound, the “MTT Assay (Viability) 24 h d-U937” value in data set [7] is −39.1%.
